Test results as given in ChEMBL document CHEMBL4616693, “Identification of Inhibitors of Thrombospondin 1 Activation of TGF-β” (ACS Med Chem Lett, 2020).
Peptide text beside a SMILES is read from it.

Tests used:
[1] = target: T1, Thrombospondin-1 (Homo sapiens, UniProt P07996); assay: Inhibition of TSP1 in human myeloma cells assessed reduction in TGFbeta activity incubated for 1 hr by ELISA; assay type: cell-based
Target sequence in this assay (P07996 whole entry): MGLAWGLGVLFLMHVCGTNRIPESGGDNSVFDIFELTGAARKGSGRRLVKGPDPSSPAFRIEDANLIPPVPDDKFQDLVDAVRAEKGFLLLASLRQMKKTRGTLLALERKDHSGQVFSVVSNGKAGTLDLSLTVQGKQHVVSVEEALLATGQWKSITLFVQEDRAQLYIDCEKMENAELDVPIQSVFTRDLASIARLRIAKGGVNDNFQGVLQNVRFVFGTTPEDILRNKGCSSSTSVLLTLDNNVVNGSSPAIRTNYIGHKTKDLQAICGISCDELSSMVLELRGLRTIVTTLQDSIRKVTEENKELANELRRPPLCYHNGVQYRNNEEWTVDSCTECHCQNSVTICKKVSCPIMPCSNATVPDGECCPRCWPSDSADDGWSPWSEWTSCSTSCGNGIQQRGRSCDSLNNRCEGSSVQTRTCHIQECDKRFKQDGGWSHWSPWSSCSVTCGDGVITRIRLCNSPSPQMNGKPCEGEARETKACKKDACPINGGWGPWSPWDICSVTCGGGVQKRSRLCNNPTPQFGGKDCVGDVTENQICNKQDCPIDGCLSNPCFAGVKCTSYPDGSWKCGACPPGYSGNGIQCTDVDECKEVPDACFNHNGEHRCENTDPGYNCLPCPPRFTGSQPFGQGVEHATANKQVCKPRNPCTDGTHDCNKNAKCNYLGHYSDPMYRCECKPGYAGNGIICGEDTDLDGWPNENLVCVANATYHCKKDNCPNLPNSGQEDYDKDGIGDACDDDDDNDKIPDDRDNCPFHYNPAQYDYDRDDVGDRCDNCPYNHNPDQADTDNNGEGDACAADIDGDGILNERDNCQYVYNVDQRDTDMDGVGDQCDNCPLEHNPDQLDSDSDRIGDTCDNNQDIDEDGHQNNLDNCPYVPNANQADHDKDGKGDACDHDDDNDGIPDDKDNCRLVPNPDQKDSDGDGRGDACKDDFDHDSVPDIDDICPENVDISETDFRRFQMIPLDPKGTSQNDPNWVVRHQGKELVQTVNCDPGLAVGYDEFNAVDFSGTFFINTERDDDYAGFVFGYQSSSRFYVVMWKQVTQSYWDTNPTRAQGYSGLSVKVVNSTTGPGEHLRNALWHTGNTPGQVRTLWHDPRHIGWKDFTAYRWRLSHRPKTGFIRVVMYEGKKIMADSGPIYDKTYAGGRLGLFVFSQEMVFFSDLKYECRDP

[2] = Microsomal stability in rat liver microsomes assessed as half life measured after 45 mins in presence of NADPH by LC-MS/MS analysis; assay type: ADME, Microsome
[3] = Microsomal stability in human liver microsomes assessed as half life measured after 45 mins in presence of NADPH by LC-MS/MS analysis; assay type: ADME, Microsome
[4] = Half life in CD1 mouse at 1 mg/kg, iv by LC-MS/MS analysis; assay type: ADME, organism-based; details: in vivo
[5] = Half life in ip dosed CD1 mouse by LC-MS/MS analysis; assay type: ADME, organism-based; details: in vivo
[6] = Cmax in ip dosed CD1 mouse measured after 0.25 hrs by LC-MS/MS analysis; assay type: ADME, organism-based; parameters: route intraperitoneal; details: in vivo
[7] = Plasma concentration in CD1 mouse at 1 mg/kg, iv or 5 mg/kg, po measured after 1 hr by LC-MS/MS analysis; assay type: ADME, organism-based
[8] = Plasma concentration in CD1 mouse at 1 mg/kg, iv or 5 mg/kg, po measured after 2 hrs by LC-MS/MS analysis; assay type: ADME, organism-based
[9] = Oral bioavailability in CD1 mouse at 5 mg/kg by LC-MS/MS analysis; assay type: ADME, organism-based; details: in vivo
[10] = target: T1, Thrombospondin-1; assay: Inhibition of recombinant human TSP1 P123 expressed in baculovirus system binding to recombinant human LAP at 10 nM preincubated for 10 mins followed by recombinant human LAP addition and measured after 2 hrs by ELISA relative to control
Target sequence in this assay (P07996 19-1170 limits assumed): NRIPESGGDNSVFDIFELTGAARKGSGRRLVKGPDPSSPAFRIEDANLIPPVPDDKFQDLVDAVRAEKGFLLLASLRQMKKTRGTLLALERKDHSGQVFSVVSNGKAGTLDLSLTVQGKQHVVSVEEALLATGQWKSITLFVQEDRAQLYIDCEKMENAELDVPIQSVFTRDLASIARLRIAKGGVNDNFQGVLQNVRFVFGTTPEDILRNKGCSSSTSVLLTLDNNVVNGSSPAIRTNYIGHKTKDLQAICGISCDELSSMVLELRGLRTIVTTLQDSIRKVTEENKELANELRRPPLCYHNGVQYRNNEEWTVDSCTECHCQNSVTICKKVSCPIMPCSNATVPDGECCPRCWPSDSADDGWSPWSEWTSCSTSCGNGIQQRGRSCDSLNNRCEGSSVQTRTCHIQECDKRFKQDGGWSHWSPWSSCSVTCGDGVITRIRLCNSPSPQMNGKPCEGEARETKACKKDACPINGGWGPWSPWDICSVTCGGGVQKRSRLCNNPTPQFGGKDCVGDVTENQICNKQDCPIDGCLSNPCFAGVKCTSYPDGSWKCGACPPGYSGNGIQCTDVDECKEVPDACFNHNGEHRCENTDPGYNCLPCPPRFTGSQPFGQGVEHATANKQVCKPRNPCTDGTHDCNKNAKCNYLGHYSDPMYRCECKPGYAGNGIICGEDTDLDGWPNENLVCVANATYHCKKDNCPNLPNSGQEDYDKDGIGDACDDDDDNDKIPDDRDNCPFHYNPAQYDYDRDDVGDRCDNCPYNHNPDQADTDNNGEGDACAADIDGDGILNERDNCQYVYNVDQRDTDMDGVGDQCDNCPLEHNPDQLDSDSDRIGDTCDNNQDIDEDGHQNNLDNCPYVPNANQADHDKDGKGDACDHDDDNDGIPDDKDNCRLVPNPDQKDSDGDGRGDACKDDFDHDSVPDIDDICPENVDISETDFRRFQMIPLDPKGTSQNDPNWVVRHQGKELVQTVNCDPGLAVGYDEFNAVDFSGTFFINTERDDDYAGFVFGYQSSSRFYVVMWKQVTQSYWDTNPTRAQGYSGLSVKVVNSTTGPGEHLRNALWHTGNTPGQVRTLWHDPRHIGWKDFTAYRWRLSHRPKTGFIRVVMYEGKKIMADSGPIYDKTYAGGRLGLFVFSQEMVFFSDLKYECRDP

| IC50 [1] | SMILES | further results |
| --- | --- | --- |
| 15.1 nM | CC(=O)NCCCC[C@H](NC(=O)[C@H](CO)NC(C)=O)C(=O)N[C@@H](CC(C)C)C(N)=O (Ac-Ser-Lys(Ac)-Leu-NH2) |  |
| 7.59 nM | CC(=O)N[C@@H](CCCN)C(=O)NC(C)(C)C(N)=O | half-life [2]: 2.83 h; half-life [3]: > 5 h; half-life [4]: 0.2 h; half-life [5]: 7 h; Cmax [6]: 19400 ng/mL; concentration at 1 h [7]: 11.6 µM; concentration at 2 h [8]: 2.1 µM; bioavailability [9]: 9%; inhibition [10]: 85% |
| 4.37 nM | CNCCCC[C@H](NC(=O)[C@H](CO)NC(C)=O)C(=O)N[C@@H](CC(C)C)C(N)=O (HELM PEPTIDE1{[ac].S.[CNCCCC[C@H](N[*:1])C(=O)[*:2]].L.[am]}$$$$V2.0) |  |
| 2 nM | CC(=O)N[C@@H](CO)C(=O)N[C@@H](CCCCN)C(=O)N[C@H](CC(C)C)C(N)=O (HELM PEPTIDE1{[ac].S.K.[dL].[am]}$$$$V2.0) |  |
| 2.88 nM | CNC(=O)[C@H](CC(C)C)NC(=O)[C@@H](CCCCN)NC(=O)[C@@H](NC(C)=O)[C@@H](C)O |  |
| 0.38 nM | CC(=O)N[C@H](CO)C(=O)N[C@@H](CCCCN)C(=O)N[C@@H](CC(C)C)C(N)=O (HELM PEPTIDE1{[ac].[dS].K.L.[am]}$$$$V2.0) |  |
| 13.5 nM | CCC(=O)N[C@@H](CO)C(=O)N[C@@H](CCCCN)C(=O)N[C@@H](CC(C)C)C(N)=O (HELM PEPTIDE1{[CCC(=O)[*:2]].S.K.L.[am]}$$$$V2.0) |  |
| 1.51 nM | CC(=O)N[C@@H](CO)C(=O)N[C@@H](CCCCN(C)C)C(=O)N[C@@H](CC(C)C)C(N)=O (HELM PEPTIDE1{[ac].S.[CN(C)CCCC[C@H](N[*:1])C(=O)[*:2]].L.[am]}$$$$V2.0) |  |
| 9.55 nM | CC(=O)N[C@@H](CC(N)=O)C(=O)N[C@@H](CCCCN)C(=O)N[C@@H](CC(C)C)C(N)=O (Ac-Asn-Lys-Leu-NH2) |  |
| 1.7 nM | CC(=O)N[C@@H](CO)C(=O)N[C@H](CCCCN)C(=O)N[C@@H](CC(C)C)C(N)=O (HELM PEPTIDE1{[ac].S.[dK].L.[am]}$$$$V2.0) |  |
| 3.31 nM | CC(=O)N[C@@H](CO)C(=O)N[C@@H](CCCCN)C(=O)N[C@@H](CC(C)C)C(=O)N(C)C (HELM PEPTIDE1{[ac].S.K.L.[CN(C)[*:1]]}$$$$V2.0) |  |
| 2.24 nM | CC(=O)N[C@@H](CO)C(=O)N[C@@H](CCCCN)C(=O)N(C)[C@@H](CC(C)C)C(N)=O (HELM PEPTIDE1{[ac].S.K.[meL].[am]}$$$$V2.0) |  |
| 14.1 nM | CC(=O)NCC(=O)N[C@@H](CCCCN)C(=O)N[C@@H](CC(C)C)C(N)=O (Ac-Gly-Lys-Leu-NH2) |  |
|  | CC(=O)N[C@@H](CO)C(=O)N[C@@H](CCCN)C(=O)NC(C)(C)C(N)=O (HELM PEPTIDE1{[ac].S.[Orn].[Aib].[am]}$$$$V2.0) | inhibition [10]: 34% |
| 5.25 nM | CC(=O)N[C@@H](CO)C(=O)N[C@@H](CCCCN)C(=O)N[C@@H](CC(C)C)C(N)=O (Ac-Ser-Lys-Leu-NH2) | half-life [4]: 1.9 h; inhibition [10]: 85% |
